In US20250032409A1, “TREATMENT OF LOW-GRADE INTERMEDIATE-RISK NON-MUSCLE-INVASIVE BLADDER CANCER WITH A THERMALLY GELLING PHARMACEUTICAL COMPOSITION CONTAINING MITOMYCIN” (priority 2023, published 2025):

Tests used:
LG NMIBC = settings: dose-intensive administration as primary therapy for LG NMIBC; cited from earlier work
[1] = OPTIMA II: mitomycin plasma concentrations; type: in vivo, human
[2] = human, plasma, other: instillation, read-out: Mitomycin plasma concentration, mean (standard deviation)

For `CO[C@@]12[C@H](COC(N)=O)C3=C(C(=O)C(C)=C(N)C3=O)N1C[C@@H]1N[C@@H]12` [Mitomycin], the CR rates (LG NMIBC) is given as 50-60%, the “Mitomycin plasma concentration, mean (standard deviation)” value ([1]; Pre-instillation, 6 patients, UGN-102) is given as 0 ng/mL and the AUC ([1]; human, plasma, other: instillation, read-out: Concentration-time Curve (AUC) - Mean (standard deviation)) is given as 5.69 ng·h/mL. It also gave a concentration at 0.5 h [1, 2] of 0.75 ng/mL, a concentration at 1 h [1, 2] of 0.6 ng/mL and a concentration at 2 h [1, 2] of 0.34 ng/mL. It also gave a concentration at 3 h [1, 2] of 1.88 ng/mL, a concentration at 4 h [1, 2] of 1.93 ng/mL and a concentration at 5 h [1, 2] of 0.57 ng/mL. It also gave a concentration at 6 h [1, 2] of 0.32 ng/mL and a Cmax ([1]; human, plasma, other: intravesical instillation (via urethral catheter), read-out: Concentration (Cmax)) of 2.27 ng/mL.
